# Assay results reported in patent US5827895A, “Hexahydrolupulones useful as anticancer agents” (Regents of the University of Minnesota, priority 1996, dated 1998).
# Legend:
# Assay in all cases: microbe, parasite or virus in culture
# Assay type in all cases: cell-based, M. tuberculosis
# Isoniazid Resistant TB = conditions: Mycobacterium tuberculosis, read-out: inhibition of Isoniazid Resistant TB growth
# [1] = test system: Pyrazinamide Resistant TB; conditions: Mycobacterium tuberculosis, read-out: inhibition of Pyrazinamide Resistant TB growth
# [2] = test system: Isoniazid and Rifampin Resistant TB; conditions: Mycobacterium tuberculosis, read-out: inhibition of Isoniazid and Rifampin Resistant TB
structure (smiles),measurement,setting,value
"CC(C)CCC1=C(O)C(C(=O)C(C)C)=C(O)C(CCC(C)C)(CCC(C)C)C1=O [HHC, hexahydrocolupulone]",inhibition at 75 µM,Isoniazid Resistant TB,91%
same,inhibition at 75 µM,[1],98%
same,inhibition at 75 µM,[2],92%
